Data published in article PMC12373846, “Hemoglobin as a pseudoperoxidase and drug target for oxidative stress-related diseases” (Signal Transduction and Targeted Therapy, 2025).

Tests used:
[1] = molecular target: T1, HRP (Armoracia rusticana, UniProt P00433); test: H2O2 assay with HRP (HRP-EC50); format: biochemical, horseradish; settings: Tables S2, S3; read-out: HRP-EC50
T1 sequence (P00433 31-353): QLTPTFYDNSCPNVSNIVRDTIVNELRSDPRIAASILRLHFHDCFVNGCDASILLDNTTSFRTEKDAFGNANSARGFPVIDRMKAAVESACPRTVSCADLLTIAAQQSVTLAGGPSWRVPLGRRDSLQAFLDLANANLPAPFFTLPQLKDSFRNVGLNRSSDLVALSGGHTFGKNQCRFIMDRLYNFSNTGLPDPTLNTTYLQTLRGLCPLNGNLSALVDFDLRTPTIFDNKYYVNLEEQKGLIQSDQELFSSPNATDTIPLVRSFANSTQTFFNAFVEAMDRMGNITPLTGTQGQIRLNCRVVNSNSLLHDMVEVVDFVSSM
Description: Hb (Sigma‒Aldrich, H7379), H2O2 (Sigma‒Aldrich, H1009), and Amplex Red reagents (Invitrogen, A12222) were obtained for the study. A 4 μM H2O2 solution was prepared in 50 mM sodium phosphate buffer (pH 7.2). Then, 49 μl of this mixture was mixed with 1 μl of the test compound in DMSO or distilled water. The mixture was combined with an assay mixture of Amplex Red reagent (20 mM stock to 0.1 mM) and HRP (200 U/ml stock to 0.2 U/ml) and added to the wells at 50 μl/well. After a 60-min incubation at 37 °C, resorufin production was quantified via a microplate fluorescence reader (SpectraMax iD5, Molecular Devices) at ex/em = 535/580 nm. The H2O2-decomposing activity was estimated via the following equation: (sample fluorescence-blank fluorescence)/(control […]-blank fluorescence) × 100. For the ROS-Glo assay, the H2O2 substrate solution and ROS-Glo detection solution were prepared according to the manufacturer’s instructions. 10 μM H2O2 and drugs were prepared as in the Amplex Red assay, with HRP, Hb, CAT, or GPx added as needed. The mixture was added to the wells at 100 μl/well and incubated for 60 min at 37 °C. H2O2 substrate solution was added, and the mixture was incubated at room temperature for 30 min. After the H2O2 substrate solution was added and incubated at room temperature for 30 min, the ROS-Glo detection solution was added, and the mixture was incubated for 15 min. Luminescence was measured via iD5 microplate readers. The H2O2-decomposing activity was estimated via the following equation: (sample luminescence-blank luminescence)/(control luminescence-blank luminescence) × 100. The U/ml was calculated on the basis of the amount of H2O2 reduced by Hb during the reaction, using μg/ml and U/mg.

[2] = test system: APP/PS1 mice; test: Immunohistochemistry of hippocampus, APP/PS1 mice; format: in vivo, mouse; settings: 3 mg/kg/day i.p.; for mean intensity of Iba1 in the hippocampus: Fig. S10e; for mean intensity of GFAP in the hippocampus: Fig. S10d
Description: For an animal model of AD, both sexes of 10- to 18-month-old APP/PS1 mice were maintained and used as previously described.[76],[77] To test the effects of novel H2O2-decomposing enhancers in the AD model, the mice were treated by i.p. injection with KDS12008 (3 mg/kg/day), KDS12017 (3 mg/kg/day), or KDS12025 (3 or 10 mg/kg/day) once per day for 1 or 2 weeks, depending on the experimental protocol. All drugs were dissolved in 200 μl of saline, and the amount of each drug was calculated on the basis of the weight (kg) of the mouse. Moreover, KDS12025 (3 mg/kg/day) was orally administered to the AD model for 2 weeks ad libitum.
The mice were deeply anesthetized with vaporized 1% isoflurane and placed into stereotaxic frames (RWD Life Science, China). Following an incision on the midline of the scalp, a hole was drilled into the skull above the hippocampus. AAV-GFAP104-GFP or AAV-GFAP104-DTR-GFP was bilaterally microinjected into the hippocampal CA1 region (AP, −2.0 mm; ML, ±1.5 mm; DV, −1.65 mm from the bregma). Diphtheria toxin (2 mg/ml) was administered for 16 days as previously described.[77] For shRNA knockdown, AAV-pSicoR-Hbβ-shRNA-mCherry or AAV-pSicoR-Sc-shRNA-mCherry was microinjected into the same coordinate system. A total of 0.8 µl of the virus was injected via a syringe pump (KD Scientific, USA). The injection procedures were implemented before 5 weeks of the experiments. For cell type-specific knockdown, AAV-pSico-Hbβ-shRNA-GFP or AAV-pSico-Sc-shRNA-GFP was combined with either AAV-CaMKII-Cre-mCherry for neuronal targeting or AAV-GFAP-Cre-mCherry for astrocyte targeting. The viruses were bilaterally injected into the hippocampus and substantia nigra via the same stereotaxic coordinates and injection procedures. All viruses used in this study were produced at the Institute for Basic Science virus facility (IBS virus facility, Korea). To investigate the effects of 0.1 mg/kg/day KDS12025, GiD mice were injected with diphtheria toxin (2 mg/ml) daily for 16 days. Concurrently, KDS12025 was administered ad libitum (0.1 mg/kg/day) during the same period.
The mice were deeply anesthetized with 2% isoflurane and positioned on the operating table. After the abdomen was opened and the heart was exposed, the […] were perfused with saline, followed by 4% paraformaldehyde (PFA) in 0.1 M PBS. The mice were decapitated, and the brains were excised from the skull. Excised brains were postfixed in 4% PFA overnight at 4 °C and dehydrated in 30% sucrose for 48 h. Coronal hippocampal sections were cut at 30 µm thickness with a cryostat and stored in storage solution. For the ALS experiments, lumbar spinal cords (L2–L5) were also carefully dissected and immediately immersed in 4% PFA for postfixation. The sections were fully washed in 0.1 M PBS and incubated for 1 h in blocking solution (0.3% Triton X-100, 2% donkey and goat serum in 0.1 M PBS). Next, a mixture of primary antibodies in the blocking solution was used for immunostaining on a shaker overnight at 4 °C. The sections were washed in PBS three times. After washing, the sections were incubated with the corresponding fluorescent secondary antibodies for 1 h at RT. DAPI staining was performed by adding a DAPI solution (1:2000) during the second washing step. After the washing step was complete, the sections were mounted on cover slides with mounting medium. A series of fluorescence images were obtained with an LSM900 (Zeiss, Germany) confocal microscope or Lattice SIM Elyra 7 (Zeiss, Germany). The 15–22 μm Z stack images in 1–2 μm steps were processed for image analysis, which was performed via the ImageJ (NIH, US) and ZEN digital imaging for light microscopy blue system (Zeiss, Germany) programs.

Structure (SMILES) | EC50 [1] [nM] | mean intensity of Iba1 in the hippocampus [2] | mean intensity of GFAP in the hippocampus [2]
O=C(O)c1cc(NCCc2ccc(C(F)(F)F)cc2)ccc1O [HTPEB, 2-hydroxy-5-[2-(4-trifluoromethyl-phenyl)-ethylamino]-benzoic acid, reference compound] | 1520 | – | –
CN(C)c1ccc(NCCc2ccc(C(F)(F)F)cc2)cc1.Cl [KDS12008, N^1,N^1-dimethyl-N^4-(4-(trifluoromethyl)phenethyl)benzene-1,4-diamine hydrochloride salt] | 795 | 1562±64.27 | 2063±93.76
CNc1ccc(NCCc2ccc(C(F)(F)F)cc2)cc1.Cl [KDS12017, N^1-methyl-N^4-(4-(trifluoromethyl)phenethyl)benzene-1,4-diamine hydrochloride salt] | 828 | 1556±53.65 | 1711±145.9
